Reference: the NIST ThermoML archive (doi:10.1016/j.fluid.2018.04.007)

Experiments:
[1] = refractive index (Na D-line) (dimensionless); xn = mol fraction of the nth substance listed; details: 101 kPa, Liquid, Standard Abbe refractometry
[2] = relative permittivity at various frequencies (dimensionless); xn = mol fraction of the nth substance listed; details: 101 kPa, Liquid, Frequency=1 MHz, Parallel plate capacitor

CCCCCCN [1-hexanamine] + CO
Details | refractive index, 293.15 K | refractive index, 298.15 K | refractive index, 303.15 K | relative permittivity, 293.15 K | relative permittivity, 298.15 K
[1], x2 = 0 | 1.41808 | 1.41563 | 1.41321 | – | –
[1], x2 = 0.0534 | 1.41741 | 1.41499 | 1.41261 | – | –
[1], x2 = 0.0942 | 1.41681 | 1.41442 | 1.41204 | – | –
[1], x2 = 0.1871 | 1.41513 | 1.41282 | 1.4104 | – | –
[1], x2 = 0.2977 | 1.4125 | 1.41017 | 1.40773 | – | –
[1], x2 = 0.4039 | 1.40889 | 1.40657 | 1.40412 | – | –
[1], x2 = 0.4917 | 1.4048 | 1.40243 | 1.4 | – | –
[1], x2 = 0.5977 | 1.3979 | 1.3955 | 1.39316 | – | –
[1], x2 = 0.6997 | 1.38836 | 1.38615 | 1.38372 | – | –
[1], x2 = 0.7995 | 1.37505 | 1.37296 | 1.37067 | – | –
[1], x2 = 0.8475 | 1.36685 | 1.36479 | 1.36257 | – | –
[1], x2 = 0.8978 | 1.35657 | 1.3546 | 1.3524 | – | –
[1], x2 = 0.9496 | 1.34385 | 1.34182 | 1.33968 | – | –
[1], x2 = 0.9834 | 1.33399 | 1.33194 | 1.3298 | – | –
[2], x2 = 0 | – | – | – | 3.964 | 3.904
[2], x2 = 0.0534 | – | – | – | 4.367 | 4.293
[2], x2 = 0.122 | – | – | – | 4.964 | 4.87
[2], x2 = 0.1906 | – | – | – | 5.681 | 5.564
[2], x2 = 0.3081 | – | – | – | 7.244 | 7.085
[2], x2 = 0.395 | – | – | – | 8.783 | 8.557
[2], x2 = 0.4982 | – | – | – | 11.109 | 10.806
[2], x2 = 0.6035 | – | – | – | 14.21 | 13.794
[2], x2 = 0.7016 | – | – | – | 17.646 | 17.127
[2], x2 = 0.8002 | – | – | – | 21.864 | 21.254
[2], x2 = 0.8485 | – | – | – | 24.251 | 23.597
[2], x2 = 0.8984 | – | – | – | 26.928 | 26.203
[2], x2 = 0.9496 | – | – | – | 30.037 | 29.216
[2], x2 = 0.9834 | – | – | – | 32.343 | 31.44
